Test results as given in patent US20110230423A1, “THERAPY AND MEDICAMENT USING INTEGRIN LIGANDS FOR TREATING CANCER” (priority 2008, published 2011).

What was measured:
brain metastases = settings: hypofractionation approach with or without the radiosensitizer; cited from earlier work
[1] = tested on: U251 human glioblastoma cells; test: Rat orthotopic glioblastoma model radiotherapy, cilengitide scheduling experiments; assay type: in vivo, NIH rnu nude rats; settings: individual animals
Experimental: NIH rnu nude rats are anaesthetized, restrained, and injected intracerebrally 1 mm retro orbitally, 3 mm to the right of the bregma and at a depth of 2.5 mm with 5×10E5 U251 human glioblastoma cells suspended in 10 ul of culture medium, using a #2701 Hamilton syringe fitted with a 26 gauge needle, essentially as previously described (Engebraaten et al., 1999). After 14 days, cilengitide (4 mg/kg) is given as an intraperitoneal bolus in PBS, at various time (8 h, 4 h, 2 h, 1 h) prior to a single treatment with single, collimated, dorsal-ventral beam of 6 MV x-rays, so that 95-100% of the central axis dose of 25 Gy hit the tumor volume (Kim et al., 1999). Each of the 7 subsequent days the animals also received an identical i.p. bolus of cilengitide. The animals are maintained under ad libitum food and drink until they become moribund, or are sampled for tissue analysis (in the t-4 and t-8 h groups, where the animals are healthy past 230 days post tumor injection). A Kaplan-Meier survival curve is calculated and plotted (FIG. 1) from the raw data (Table 1). All animals in the RT monotherapy group died by 120 d.

[2] = tested on: newly diagnosed glioblastoma (GBM); test: Phase I/IIa trial of cilengitide and temozolomide with concomitant radiotherapy, followed by maintenance, in newly diagnosed glioblastoma; assay type: in vivo, human
Experimental: Purpose: To evaluate safety, toxicity, and efficacy of the combination of the cyclic RGD pentapeptide Cilengitide (=cyclo-(Arg-Gly-Asp-DPhe-NMe-Val)), an inhibitor of integrins avβ3 and avβ5, in addition to standard temozolomide (TMZ) and radiotherapy (RT).
Patients and methods: Fifty-two pts (PS 0-1: 92%, 2: 8%; median age 57 yrs) after biopsy (n=9/17%) or tumor resection (n=43/83%) were treated with standard TMZ/RT (Stupp et al. NEJM 2005). In addition Cilengitide (500 mg i.v., 2×/week) was started one week before TMZ/RT and given throughout for the duration of chemotherapy or until progression. Primary endpoint was progression free survival rate at 6 months (target: 65%). Patients were followed with MRI every 2 months. Histopathologic diagnosis and MRI imaging were independently reviewed, MGMT promoter methylation status was assessed in 45 (86.5%) pts.

COCC(O)Cn1ccnc1[N+](=O)[O-] (stereo not drawn) [misonidazol]
median survival (brain metastases): ≤ 3.9 months

CC(C)[C@H]1C(=O)N[C@@H](CCCN=C(N)N)C(=O)NCC(=O)N[C@@H](CC(=O)O)C(=O)N[C@H](Cc2ccccc2)C(=O)N1C [Cilengitide, cyclo-(Arg-Gly-Asp-DPhe-NMeVal)]
Days Post Implant ([1]; cilengitide 4 mg/kg i.p. 4 hours pre-irradiation (Rt 25 Gy) plus 7 subsequent daily boluses): > 230 days
Days Post Implant ([1]; cilengitide 4 mg/kg i.p. 8 hours pre-irradiation (Rt 25 Gy) plus 7 subsequent daily boluses): > 230 days
Treatment related non-hematologic grade 3 toxicities (patients) ([2]; Cilengitide 500 mg i.v. 2x/week plus standard TMZ/RT, n=3/52): 5.7%
Tolerability of the combination ([2]; Cilengitide and TMZ/RT): well tolerated
sigmoid perforation (grade 2), patients ([2]; patient with a history of sigmoid diverticulosis): One
